Laboratory results: patent US11491165B2 (Kinoxis Therapeutics Pty Ltd, priority 2016, dated 2022)

Assays:
[1] = molecular target: T1, oxytocin receptor (OXTR), hOTR (Homo sapiens, UniProt P30559); assay: Competition radioligand binding, [3H]-oxytocin, OTR-expressing HEK293 membranes; details: [3H]-oxytocin 10 nM, 90 min 4 °C
T1 construct: expressed in transfected cells
T1 sequence (P30559 1-389): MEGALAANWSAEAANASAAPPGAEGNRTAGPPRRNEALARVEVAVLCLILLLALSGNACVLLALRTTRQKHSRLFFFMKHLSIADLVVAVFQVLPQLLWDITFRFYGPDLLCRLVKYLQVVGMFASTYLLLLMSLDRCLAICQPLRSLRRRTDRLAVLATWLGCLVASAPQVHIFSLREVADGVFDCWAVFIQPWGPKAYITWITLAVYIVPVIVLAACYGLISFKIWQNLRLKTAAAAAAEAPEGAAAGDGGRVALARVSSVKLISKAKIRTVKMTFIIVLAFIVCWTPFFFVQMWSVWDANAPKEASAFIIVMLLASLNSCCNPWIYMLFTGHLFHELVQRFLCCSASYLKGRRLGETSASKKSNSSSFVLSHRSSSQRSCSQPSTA
Description: (§1) Human embryonic kidney cells (HEK-293) transfected to stably express untagged hOTR and V1aR using the Flp-In™ T-REx™ system (Life Technologies, Carlsbad, Calif. USA) were established as reported in Jorgensen et al., 2016 (the entire disclosure of which is hereby incorporated by reference). Cells were subsequently maintained in 10% DMEM containing hygromycin (80 μg/ml), penicillin (100 U/ml), streptomycin (0.1 mg/ml) and blasticidine S hydrochloride (15 μg/ml).
(§2) To induce receptor expression, cells were incubated with tetracycline (2 μg/mL) for 48 h. PBS with 5 mM EDTA (pH 7.4) was used to detach OTR and V1aR-expressing HEK293 cells from culture flasks. Harvested cells were centrifuged at 1200 g for 5 min and were resuspended in homogenization buffer (50 mM HEPES, 5 mM EDTA, 5 mM MgCl2; pH 7.4) prior to homogenization using an Ultra-Turrax homogeniser (IKA, Wilmington, N.C., USA). Homogenates were centrifuged three times for 30 min at 48.000 g, 4° C. for 30 min and membrane pellets resuspended in 50 mM Tris HCl, 5 mM MgCl2 (pH 7.4). A bicinchoninic acid assay was used according to the manufacturer's protocol (Bio-Rad, Hercules. Calif., USA) to measure final protein concentration. Membranes were stored at −80° C. until use in competition radioligand binding studies.
(§3) Reactions were incubated for 90 min at 4° C. to reach equilibrium, and terminated by rapid filtration over glass fibre filters (Whatman GF/A […]; Millipore, Darmstadt, Germany), and washing with ice-cold reaction buffer. Filters were dried, then incubated with Microscint 0 (Perkin Elmer) for 30 min before radioactivity was detected with a Microbeta2 2450 microplate-reader (Perkin Elmer). […] Specific binding in the presence of compounds was expressed as a percentage of specific binding in the presence of vehicle control. A sum-of-squares F-test was used to compare the goodness of fit of one-site, two-site and sigmoidal with variable hill slope binding models, and to calculate Ki's using Graphpad Prism (Graphpad Software, La Jolla, Calif., USA).

[2] = molecular target: T2, vasopressin 1a receptor (V1aR) (Homo sapiens, UniProt P37288); assay: Competition radioligand binding, [3H]-vasopressin, V1aR-expressing HEK293 membranes; details: [3H]-vasopressin 2 nM, 90 min 4 °C
T2 construct: expressed in transfected cells
T2 sequence (P37288 whole entry): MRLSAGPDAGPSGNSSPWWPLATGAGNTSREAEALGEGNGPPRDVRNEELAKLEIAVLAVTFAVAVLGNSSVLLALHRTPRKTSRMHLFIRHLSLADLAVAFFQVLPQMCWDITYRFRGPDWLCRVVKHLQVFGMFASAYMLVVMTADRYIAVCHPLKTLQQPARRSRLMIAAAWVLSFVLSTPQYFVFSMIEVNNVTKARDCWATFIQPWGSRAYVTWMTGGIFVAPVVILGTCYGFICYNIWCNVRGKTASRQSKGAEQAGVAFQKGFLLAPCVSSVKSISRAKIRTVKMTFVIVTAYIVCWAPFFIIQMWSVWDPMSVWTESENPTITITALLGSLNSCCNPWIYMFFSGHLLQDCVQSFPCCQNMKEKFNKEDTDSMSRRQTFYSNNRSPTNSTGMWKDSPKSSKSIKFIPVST
Description: as §1, §2, §3

[3] = molecular target: T1, oxytocin receptor (OXTR), hOTR; assay: IP1 accumulation assay, OTR-expressing HEK-293 cells (agonist and antagonist assessment); type: cell-based; details: for Emax: HEK293, read-out: OXTR Emax (% OXT); for EC50 (OXTR agonist potency, mean ± s.d.) / EC50: agonist assessment; for EC50 (OXTR agonist potency, mean ± s.d.) / IC50: IP1; for EC50: IP1, 1 h; for OV function: ratio of OXTR functional potency to V1aR functional potency, 'OT only' = function at OXTR only; for IC50: antagonist assessment vs OT 30 nM (~EC70)
Description: as §1
(§4) OTR or V1aR-expressing HEK-293 cells were seeded onto poly-L-lysine (100 μg/ml)-coated 384-well plates at a density of 8.75×10^3 cells per well. Cells were incubated in tetracycline (2 μg/mL) for 48 h to induce receptor expression. Intracellular IP1 levels induced by activation of the Gq protein coupled to the OTR and V1aR was indexed using the HTRF IP-One kit (CisBio International, Bedford, Mass., USA), according to manufacturer's protocol. For agonist assessment, cells were incubated with logarithmically-spaced concentrations of compounds (1 nM-100 μM) for 1 h prior to the addition of Ab-Cryptate and IP1-d2 for 1 h. The contents of each well were transferred to a white-walled proxy plate (Perkin Elmer) and fluorescence read using a Pherastar Microplate reader (BMG Labtech, Cary, N.C., USA). For antagonist assessment, cells were incubated an ˜EC70 concentration of OT (30 nM) or AVP (25 nM) mixed with compounds (1 nM-100 μM) or vehicle control for 1 h. IP1 levels in the presence of compounds and OT or AVP were expressed as a percentage of levels seen with OT or AVP in the presence of vehicle control. Concentration response curves for OT and AVP were determined after 5 min incubation in drug or vehicle, and the data fitted using GraphPad PRISM to a 4-parameter logistic equation of the form y=Min+(Max−Min)/(1+10^((logEC50−X)*n)) where X is drug concentration and n is the H-ill slope. Data represent the mean±s.d. of at least 3 independent experiments, each in duplicate.

[4] = molecular target: T2, vasopressin 1a receptor (V1aR); assay: IP1 accumulation assay, V1aR-expressing HEK-293 cells (agonist and antagonist assessment); type: cell-based; details: for EC50: agonist assessment, IP1, 1 h; for IC50: antagonist assessment vs AVP 25 nM (~EC70), IP1
Description: Cells were subsequently maintained in 10% DMEM containing hygromycin (80 μg/ml), penicillin (100 U/ml), streptomycin (0.1 mg/ml) and blasticidine S hydrochloride (15 μg/ml).
as §4, with “Cells” for “OTR or V1aR-expressing HEK-293 cells were seeded onto poly-L-lysine (100 μg/ml)-coated 384-well plates at a density of 8.75×10^3 cells per well. Cells”, “For antagonist assessment, cells were incubated an ˜EC70 concentration of OT (30 nM) or AVP (25 nM) mixed with compounds (1 nM-100 μM) or vehicle control for 1 h.” left out

| Ki [1] [µM] | Ki [2] [µM] | Emax [3] [%] | EC50 (OXTR agonist potency, mean ± s.d.) [3] [µM] | EC50 [3] [µM] | OV function [3] | EC50 [4] [µM] | IC50 [4] [µM] | melting point | IC50 [3] [µM] | Compound |
| --- | --- | --- | --- | --- | --- | --- | --- | --- | --- | --- |
| 0.842 ± 0.288 | 0.108 ± 0.0235 | 4.99 | 0.1249 ± 0.0168 | 0.338 ± 0.0765 | 0.45 | > 10 | 0.746 ± 0.158 | 267 to 269 °C (dec.) |  | COc1cccc(C(=O)N2Cc3cnn(C)c3Nc3ccccc32)c1 [WJ0657, (3-Methoxyphenyl)(1-methyl-4,10-dihydrobenzo[b]pyrazolo[3,4-e][1,4]diazepin-5 (1H)-yl)methanone] |
| 0.272 ± 0.0876 | 0.024 ± 0.0034 | 8.14 | 0.2038 ± 0.0548 | 0.197 ± 0.0603 | 0.43 | > 10 | 0.462 ± 0.136 | 296 to 298 °C (dec.) |  | COc1ccc(C(=O)N2Cc3cnn(C)c3Nc3ccccc32)cc1 [WJ0661, (4-Methoxyphenyl)(1-methyl-4,10-dihydrobenzo[b]pyrazolo[3,4-e][1,4]diazepin-5 (1H)-yl)methanone] |
| 0.56 ± 0.111 | 0.0969 ± 0.0335 | 7.72 | 0.1933 ± 0.0113 | 0.179 ± 0.0378 |  | > 10 | > 10 | 204 to 206 °C |  | Cn1ncc2c1Nc1ccccc1N(C(=O)c1ccc(C(F)(F)F)cc1)C2 [WJ0677, (1-Methyl-4,10-dihydrobenzo[b]pyrazolo[3,4-e][1,4]diazepin-5 (1H)-yl)(4-(trifluoromethyl)phenyl)methanone] |
| 0.755 ± 0.164 | 0.0478 ± 0.0094 | 10.9 | 0.2727 ± 0.0694 | 0.521 ± 0.0352 | 0.24 | > 10 | 2.21 ± 0.406 | 290 to 292 °C (dec.) |  | Cn1ncc2c1Nc1ccccc1N(C(=O)c1cc(F)cc(F)c1)C2 [WJ0681, (3,5-Difluorophenyl)(1-methyl-4,10-dihydrobenzo[b]pyrazolo[3,4-e][1,4]diazepin-5 (1H)-yl)methanone] |
| 0.103 ± 0.031 | 0.0078 ± 0.0009 | 11.3 | 0.2837 ± 0.0224 | 0.0962 ± 0.0229 | 0.085 | > 10 | 1.14 ± 0.165 | 235 to 237 °C |  | Cc1ccc(C(=O)N2Cc3cnn(C)c3Nc3ccccc32)cc1F [WJ0683, (3-Fluoro-4-methylphenyl)(1-methyl-4,10-dihydrobenzo[b]pyrazolo[3,4-e][1,4]diazepin-5 (1H)-yl)methanone] |
| > 10 | 0.0816 ± 0.0126 | 11.9 | 0.2977 ± 0.0713 | 0.847 ± 0.244 |  | > 10 | > 10 | > 300 °C |  | Cn1ncc2c1Nc1ccccc1N(C(=O)c1ccccc1)C2 [WJ0685, (1-Methyl-4,10-dihydrobenzo[b]pyrazolo[3,4-e][1,4]diazepin-5 (1H)-yl)(phenyl)methanone] |
| > 10 | 0.377 ± 0.106 | 33.3 | 0.834 ± 0.0611 | 4.88 ± 0.141 |  | > 10 | > 10 | 283 to 285 °C |  | Cn1ncc2c1Nc1ccccc1N(C(=O)C13CC4CC(CC(C4)C1)C3)C2 [WJ0687, ((3r,5r,7r)-Adamantan-1-yl)(1-methyl-4,10-dihydrobenzo[b]pyrazolo[3,4-e][1,4]diazepin-5 (1H)-yl)methanone] |
| > 10 | 0.353 | 9.67 | 0.2421 ± 0.0217 | 3.53 ± 0.634 |  | > 10 | > 10 | 247 to 249 °C (dec.) | > 10 | Cn1ncc2c1Nc1ccccc1N(C(=O)c1cccnc1)C2 [WJ0753, (1-Methyl-4,10-dihydrobenzo[b]pyrazolo[3,4-e][1,4]diazepin-5 (1H)-yl)(pyridin-3-yl)methanone] |
| 0.519 ± 0.11 | 0.174 ± 0.0574 | 10.2 | 0.255 ± 0.0597 | 0.152 ± 0.0473 | 0.09 | > 10 | 1.67 ± 0.299 | 243 to 246 °C |  | Cn1ncc2c1Nc1ccccc1N(C(=O)c1ccc(Cl)cc1)C2 [WJ0755, (4-Chlorophenyl)(1-methyl-4,10-dihydrobenzo[b]pyrazolo[3,4-e][1,4]diazepin-5 (1H)-yl)methanone] |
| > 10 | 0.751 ± 0.197 |  |  | > 10 |  | > 10 | > 10 | 267 to 269 °C (dec.) | > 10 | Cn1ncc2c1Nc1ccccc1N(C(=O)c1ccncc1)C2 [WJ0757, (1-Methyl-4,10-dihydrobenzo[b]pyrazolo[3,4-e][1,4]diazepin-5 (1H)-yl)(pyridin-4-yl)methanone] |
| > 10 | 1.12 ± 0.26 |  |  | > 10 |  | > 10 | > 10 | 269 to 271 °C (dec.) | > 10 | Cn1ncc2c1Nc1ccccc1N(C(=O)c1ccccn1)C2 [WJ0759, (1-Methyl-4,10-dihydrobenzo[b]pyrazolo[3,4-e][1,4]diazepin-5 (1H)-yl)(pyridin-2-yl)methanone] |
